The numbers were not newly measured in patent US12403100B2, “Natural combination products and methods for regulation of total blood cholesterol” (priority 2018, dated 2025), which cites them from elsewhere.

Bounds are passed on as bounds.

One data set addresses CYP 2C9 (Homo sapiens, UniProt P11712).
Another data set addresses CYP 3A4 (Homo sapiens, UniProt P08684).
The conditions of data set [1]: in vivo.
For data set [2], the target named is T1, pancreatic cholesterol esterase (Sus scrofa, UniProt A0A286ZKB1).
T1 sequence (A0A286ZKB1 1-682): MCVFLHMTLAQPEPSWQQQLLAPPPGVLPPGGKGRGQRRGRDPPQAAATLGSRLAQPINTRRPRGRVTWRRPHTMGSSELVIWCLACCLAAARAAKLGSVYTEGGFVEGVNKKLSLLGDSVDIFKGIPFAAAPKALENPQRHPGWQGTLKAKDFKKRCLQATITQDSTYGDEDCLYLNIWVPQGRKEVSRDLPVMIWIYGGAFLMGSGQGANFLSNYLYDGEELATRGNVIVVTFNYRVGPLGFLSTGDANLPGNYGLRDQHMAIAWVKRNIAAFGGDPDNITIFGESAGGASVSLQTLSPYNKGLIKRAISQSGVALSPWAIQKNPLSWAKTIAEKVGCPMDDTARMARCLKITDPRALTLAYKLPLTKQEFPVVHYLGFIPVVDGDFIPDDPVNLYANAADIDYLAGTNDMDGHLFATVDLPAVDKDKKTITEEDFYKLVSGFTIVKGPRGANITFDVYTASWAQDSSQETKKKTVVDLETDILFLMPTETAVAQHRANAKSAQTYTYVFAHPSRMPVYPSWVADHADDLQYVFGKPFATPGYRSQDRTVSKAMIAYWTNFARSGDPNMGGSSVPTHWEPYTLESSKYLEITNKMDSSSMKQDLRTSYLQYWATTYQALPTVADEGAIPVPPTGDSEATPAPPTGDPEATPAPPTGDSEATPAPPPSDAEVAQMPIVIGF
The following applies: depending on their concentration.

In a further data set the test system is lipoprotein mycelia. The following applies: concentration of 0.2 mg/mL.
Test in data set [3]: not given
The source holds these as a separate data set.

For data set [4] the following is noted: aqueous-acidic medium.
Test in data set [5]: not given
This is another data set of the same source.

In data set [6] the test system is hyperlipidemic patients with hypertension. The following applies: intake of 20 mg of lovastatin, same time (8 weeks).
For data set [7] the following is noted: Reynoso et al. 2002.
For data set [8] the following is noted: in vivo. The source holds these as a separate data set.

CYP 3A4, sequence (P08684 whole entry): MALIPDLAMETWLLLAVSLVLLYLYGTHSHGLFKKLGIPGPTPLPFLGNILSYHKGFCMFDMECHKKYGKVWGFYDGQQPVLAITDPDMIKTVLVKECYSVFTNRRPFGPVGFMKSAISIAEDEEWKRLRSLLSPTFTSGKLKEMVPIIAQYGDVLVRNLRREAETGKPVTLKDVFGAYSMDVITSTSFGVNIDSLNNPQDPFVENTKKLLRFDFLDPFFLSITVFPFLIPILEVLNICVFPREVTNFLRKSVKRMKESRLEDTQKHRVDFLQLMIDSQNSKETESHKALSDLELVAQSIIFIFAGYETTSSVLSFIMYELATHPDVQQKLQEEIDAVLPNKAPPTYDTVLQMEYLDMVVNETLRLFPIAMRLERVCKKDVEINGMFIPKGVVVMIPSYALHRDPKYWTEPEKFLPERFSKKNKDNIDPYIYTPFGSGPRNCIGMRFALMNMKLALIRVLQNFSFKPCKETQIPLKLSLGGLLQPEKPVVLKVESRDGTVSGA
CYP 2C9, sequence (P11712 whole entry): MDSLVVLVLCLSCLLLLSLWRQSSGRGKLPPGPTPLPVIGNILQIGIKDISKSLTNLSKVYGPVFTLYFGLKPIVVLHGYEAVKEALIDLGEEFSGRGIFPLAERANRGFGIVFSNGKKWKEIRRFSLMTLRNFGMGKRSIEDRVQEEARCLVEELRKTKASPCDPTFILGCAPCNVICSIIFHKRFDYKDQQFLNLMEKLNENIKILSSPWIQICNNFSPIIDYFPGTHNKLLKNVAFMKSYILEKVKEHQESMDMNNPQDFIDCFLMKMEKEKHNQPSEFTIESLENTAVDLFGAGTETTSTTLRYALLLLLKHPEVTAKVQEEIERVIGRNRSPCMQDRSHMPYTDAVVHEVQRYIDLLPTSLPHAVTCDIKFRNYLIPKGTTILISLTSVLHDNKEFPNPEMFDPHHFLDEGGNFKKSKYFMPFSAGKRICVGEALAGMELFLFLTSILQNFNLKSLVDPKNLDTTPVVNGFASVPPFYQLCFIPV

Turning to `CC(C)c1nc(N(C)S(C)(=O)=O)nc(-c2ccc(F)cc2)c1/C=C/[C@@H](O)C[C@@H](O)CC(=O)O` [rosuvastatin], the lipophilic or hydrophilic result is “hydrophilic”. For the same compound, the “metabolized by CYP 2C9” value on CYP 2C9 is listed as “metabolized”. The “metabolized by CYP 3A4” value on CYP 3A4 is given as “not metabolized”.
Take `CCC(C)(C)C(=O)O[C@H]1C[C@@H](C)C=C2C=C[C@H](C)[C@H](CC[C@@H]3C[C@@H](O)CC(=O)O3)[C@H]21` [Simvastatin]: the “Plasma half-life” value in data set [1] is 1.3 to 2.4 h.
In the case of `O=C(O)c1cc(O)c(O)c(O)c1` [gallic acid], in data set [2], the “inhibition of pancreatic cholesterol ester” value is recorded as “significantly inhibit”. The “reduction of the formation of lipoprotein mycelia” value with lipoprotein mycelia is recorded as 27.26±2.17%.
For the compound catechin, the “inhibition of pancreatic cholesterol ester” value in data set [2] is recorded as “significantly inhibit”. Also, the “reduction of the formation of lipoprotein mycelia” value in the data set on lipoprotein mycelia is listed as 11.88±0.75%.
For the compound `CC[C@H](C)C(=O)O[C@H]1C[C@@H](C)C=C2C=C[C@H](C)[C@H](CC[C@@H]3C[C@@H](O)CC(=O)O3)[C@H]21` [Lovastatin], the lipophilic or hydrophilic entry is recorded as “lipophilic”. Moreover, in data set [3] (after about 24 hours), the “remaining share of the maximal concentration” value was 10%. Moreover, the “absorbed in the gastrointestinal tract” value in data set [3] (from the taken dose) is “about 30%”. Moreover, in [3] (in vivo), the “passage through the placental barrier” value was “passes through the placental barrier”, the “share converted to beta hydroxyl acid” value was “about 30%”, the “time to maximal hypolipidemic effect” value is 4-6 weeks and the “time to overt hypolipidemic effect” value was 2 weeks. The “time until maximal concentration is reached” value in [3] (in vivo) is on record as “about 2 hours”. Further, in data set [3] (taken orally), the eliminated in excrement is on record as 83% and the “eliminated in the urine” value is 10%. In data set [4], the “energy released by the reverse process (hydrolysis)” value is 2.42 kcal/mol. Further, in data set [5], the solubility in fat result was “dissolves more easily in fat” and the solubility in water entry was “difficult to dissolve in water”. For the same compound, the reduction in cholesterol in data set [6] is given as 19%. In data set [1], the “Absorption (%)” value is 31%, the “Plasma half-life” value was 2 to 4 h and the “Renal excretion (%)” value is listed as 30%. In the data set with plasma proteins, the “Binding to Plasma proteins (%)” value was 95%. Also, the “bound to plasma proteins” value in the data set on plasma proteins (lovastatin and its metabolites) was > 95%. Besides, in data set [7], the “absorbed from the digestive tract” value is ~30%.
Turning to `CC[C@H](C)C(=O)O[C@H]1C[C@H](O)C=C2C=C[C@H](C)[C@H](CC[C@@H](O)C[C@@H](O)CC(=O)O)[C@H]21` [Pravastatin], the lipophilic or hydrophilic result is “hydrophilic”. The “Passing through the blood-brain barrier” value in [8] is recorded as “No”. In data set [1], the “Absorption (%)” value is listed as 35%, the “Plasma half-life” value was 0.9 to 1.6 h and the “Renal excretion (%)” value was 60%. For the same compound, the “Binding to Plasma proteins (%)” value in the data set on plasma proteins was 40-50%. Further, the “Metabolism by CYP450” value in the data set with CYP450 was “No”. Also, the “metabolized by CYP 3A4” value on CYP 3A4 is “not metabolized”.
For the compound `CC(C)n1c(/C=C/C(O)CC(O)CC(=O)O)c(-c2ccc(F)cc2)c2ccccc21` (centres unmarked) [Fluvastatin], the lipophilic or hydrophilic entry is listed as “lipophilic”. Further, the “Passing through the blood-brain barrier” value in data set [8] was “No”. On CYP 2C9, the “metabolized by CYP 2C9” value is on record as “metabolized”. The “Plasma half-life” value in data set [1] was 1.2 h. In the data set with CYP450, the “Metabolism by CYP450” value was “Yes”.
With `CC[C@H](C)C(=O)O[C@H]1C[C@@H](C)C=C2C=C[C@H](C)[C@H](CC[C@@H](O)C[C@@H](O)CC(=O)O)[C@H]21` [Mevinolinic acid], the “energy required for lactonization of mevinolinic acid in lovastatin” value in data set [4] was 4.93 kcal/mol. In data set [5], the solubility in fat entry is “with more difficultly in fat” and the solubility in water entry is “dissolves easily in water”.
